# Experimental data published in patent publication US11850280B1 (priority 2020, dated 2023).
# Settings: in vivo
substance,measurement,value
Ivermectin,blood plasma levels versus dosage,dose-response relationship
